Measurements: patent publication US6867186B2, “Cell-permeable protein inhibitors of calpain” (New England Medical Center Hospital, priority 1997, dated 2005)
Entries after “also recorded” stand apart in the source; their conditions may differ. Read-outs that look alike come from different tables or passages of the source.

Columns and labels:
μ-calpain = target: T1, μ-calpain (Sus scrofa, UniProt P35750); assay: Fluorometric calpain assay, suc-LLVY-AMC substrate; assay type: biochemical, porcine
T1 construct: pure p-calpain (porcine erythrocyte) was obtained from Chemicon; purchased Chemicon; host or cells: porcine erythrocyte
T1 sequence (P35750 1-714): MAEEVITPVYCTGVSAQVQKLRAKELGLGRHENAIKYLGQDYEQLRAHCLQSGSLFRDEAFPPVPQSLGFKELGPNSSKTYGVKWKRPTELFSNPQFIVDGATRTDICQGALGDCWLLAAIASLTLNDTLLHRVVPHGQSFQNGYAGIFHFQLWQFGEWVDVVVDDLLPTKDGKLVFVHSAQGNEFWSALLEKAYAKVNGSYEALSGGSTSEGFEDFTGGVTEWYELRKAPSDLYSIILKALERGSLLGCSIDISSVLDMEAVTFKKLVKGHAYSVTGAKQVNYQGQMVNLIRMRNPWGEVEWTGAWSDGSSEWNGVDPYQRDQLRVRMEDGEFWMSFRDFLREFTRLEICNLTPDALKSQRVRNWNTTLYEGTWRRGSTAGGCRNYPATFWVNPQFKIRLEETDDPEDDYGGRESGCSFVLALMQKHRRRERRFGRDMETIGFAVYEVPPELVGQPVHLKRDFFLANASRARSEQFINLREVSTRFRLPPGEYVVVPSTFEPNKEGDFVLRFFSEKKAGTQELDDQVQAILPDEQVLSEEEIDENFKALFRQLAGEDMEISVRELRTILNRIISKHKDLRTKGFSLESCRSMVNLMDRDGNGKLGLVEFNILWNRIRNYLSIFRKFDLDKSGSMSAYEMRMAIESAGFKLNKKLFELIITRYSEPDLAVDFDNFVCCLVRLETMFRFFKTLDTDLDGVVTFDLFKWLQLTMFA
T1 sequence (P04574 1-266 partner): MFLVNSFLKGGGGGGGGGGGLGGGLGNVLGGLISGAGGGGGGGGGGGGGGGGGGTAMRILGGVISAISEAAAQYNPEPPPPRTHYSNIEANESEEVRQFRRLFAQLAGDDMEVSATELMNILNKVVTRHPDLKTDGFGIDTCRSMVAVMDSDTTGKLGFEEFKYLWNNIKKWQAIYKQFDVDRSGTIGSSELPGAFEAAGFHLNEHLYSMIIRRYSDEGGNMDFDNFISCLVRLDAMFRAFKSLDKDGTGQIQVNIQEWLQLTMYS
Text: Unless otherwise noted, the materials used in the studies described below were obtained from commercial suppliers. Sepharose 2B was obtained from Pharmacia Biotech (Upsala, Sweden); pure p-calpain (porcine erythrocyte) was obtained from Chemicon; succinyl-LLVY-AMC (SEQ ID NO:7) was obtained from Bachem; A23187 was obtained from LC Labs; human alpha-thrombin was obtained from Hematologic Technologies (Essex Junction, VT); anti-P-selectin antibodies conjugated to phycoerythrin were obtained from Becton Dickinson (San Jose, Calif.); Oregon Green-phalloidin was obtained from Molecular Probes (Eugene, Oreg.). All other chemicals were ACS grade or better and were obtained from Sigma Chemical Company (St. Louis, Mo.).
To assess the ability of calpastat to inhibit calpain activity, a fluorometric calpain assay was performed. The assay determined specific peptidyl hydrolysis of the peptidyl 7-amino bond of suc-LLVY-AMC (SEQ ID NO:7) by calpain.
The assay was performed in a 0.5 ml reaction volume at 37° C. The reaction buffer contained 50 mM KC1, 10 mM Tris-HCl (pH 7.5), 1 mM EDTA, and 1 mM DTT. Two hundred μM suc-LLVY-AMC (SEQ ID NO:7) was added along with 5 mM CaCl2. Calpastat or S-TIPPEY-ala was then added at the given concentrations (FIG. 9). […] The initial rate of AMC production was measured by fluorimetry for the first few minutes. […]

gel filtered platelets = assay: Thrombin-induced platelet aggregation (aggregometer); assay type: cell-based, human; conditions: for effect on platelet aggregation: thrombin or SFLLR induced
Method: In one series of experiments, platelets were purified from […] on a SEPHAROSE 2B column in PIPES buffered saline containing glucose, pre-incubated with 45 μM calpastat or S-TIPPEY-ala for 30 minutes at 37° C., and placed in a cuvette in a BIODATA aggregometer. The aggregometer measures turbidity of the solution by nephlometry (light scatter). Aggregation was induced with thrombin (0.1 to 1 unit/ml) or the thrombin receptor agonist peptide SFLLR (SEQ ID NO:5). […] In contrast, S-TIPPEY-ala had no activity. A version of S-TIPPEYIN lacking the signal sequence similarly had no activity.
In another series of experiments, gel filtered platelets were obtained and tested as follows. Blood from healthy, aspirin-free volunteers was collected by venipuncture into 4% sodium citrate (9:1 v/v, final concentration 0.4%) and centrifuged at 200×g for 20 minutes to obtain platelet rich plasma (PRP). Following incubation with apyrase (4 units/ml for 5 minutes at room temperature), platelets were purified from PRP by gel-filtration at room temperature using a Sepharose 2B column equilibrated in PIPES buffer (25 mM PIPES pH 6.8, 140 mM NaCl, 4 mM KCl, and 0.1% glucose) (Hsu-Lin, et al., J. Biol. Chem. 259:9121-9126, 1984). Final gel filtered platelet concentrations were about 1.5×10^8 cells/ml.
Gel filtered platelets (250 μl aliquots at 1.6×10^8/ml) were incubated with the indicated concentration of calpastat or mutant calpastat-ala for either 20 or 30 minutes at 37° C. in the absence of calcium and stirring. To test peptidyl calpain inhibitors, platelets were preincubated with the indicated concentration of calpeptin, MDL, E64d, DMSO (vehicle control) or NH4Cl (cathepsin control) for 10 minutes at 37° C. Following incubation, platelets were recalcified (CaCl2, 2 mM) and stimulated with 0.05-1.0 unit/ml thrombin, while being stirred (1400 rpm) at 37° C. The sensitivity of platelet preparations to thrombin decreased over the course of a given experiment. The thrombin concentration used was to elicit robust aggregation and varied between 0.05 and 1.0 U/ml. Aggregation was measured using a Bio-Data lumi-aggregometer. Percent inhibition of aggregation was measured at 4 minutes following the onset of aggregation. The initial rate of aggregation during the first 15 seconds for treated vs. untreated samples was used to calculate the IC50 for each inhibitor.

platelets = assay: cells; assay type: cell-based; parameters: reduction in spreading on the glass surface: dose or concentration left out as unconfirmed
Method: Platelet activation on surfaces can be inhibited by […] or […] fusion proteins. […] The cellular area of spread platelets was determined by computer assisted image analysis using NIH Image 1.61. […] Percent inhibition of spreading was calculated from the increase in mean cell area for untreated and treated samples vs. unspread DMSO controls.

Substance | inhibition of purified μ-calpain (μ-calpain; up to 10 μM, listed as S-TIPPEY-ala) | IC50 (gel filtered platelets; initial rate during first 15 seconds, NI=no inhibition, peptidyl inhibitors 10 min pre-incubation, read-out: IC50, initial rate of thrombin-induced platelet aggregation) | effect on platelet aggregation (gel filtered platelets) | effect on platelet aggregation (gel filtered platelets; listed as S-TIPPEY-ala) | effect on platelet spreading (platelets; spreading on glass) | IC50 (platelets; spreading on glass, NI=no inhibition, read-out: IC50, inhibition of platelet spreading) | IC50 (μ-calpain; 70 nM enzyme, 37° C., read-out: IC50, μ-calpain cleavage of suc-LLVY-AMC) | concentration of maximal inhibition of platelet aggregation (gel filtered platelets; 30 minutes pre-incubation at 37° C.) | IC50 (gel filtered platelets; no unit printed, read-out: IC50 of calpastat, initial rate of thrombin-induced aggregation) | IC50 (platelets) | inhibition of platelet spreading relative to calpastat-ala control (platelets; 100 μM, 30 minutes pre-incubation) | inhibition of platelet spreading relative to calpastat-ala control (platelets; 100 μM, 60 minutes pre-incubation) | platelets round and unspread on glass (platelets; 100 μM, 1.5 hours) | inhibition of platelet spreading relative to calpastat-ala control (platelets; 100 μM, 90 minutes pre-incubation) | reduction in spreading on the glass surface (platelets; 90 minutes at 37° C.)
AAVALLPAVLLALLAPEKLAERADAAAPEAAELLEKKTGV [Calpastat-ala] | no inhibitory activity; also recorded: no inhibition | > 50 µM | no measurable effect | no activity | minimal inhibition | > 100 µM |  |  |  |  |  |  |  |  | 
H-AAVALLPAVLLALLAPEKLGERDDTIPPEYRELLEKKTGV-OH [Calpastat] |  |  | inhibited platelet aggregation and secretion |  |  |  | 0.05 µM | 45 µM | 50 µM | 35 µM | 0% | 46% | Half | 80% | 70%
